A word on the Emax: it is the size of the effect at its maximum, as opposed to the concentration needed.

For 13 compounds, DC50 and Emax results are on record in patent US20230024096A1, “BIFUNCTIONAL COMPOUNDS FOR THE TREATMENT OF CANCER” (Hoffmann-La Roche Inc., priority 2019, published 2023).

The target of the assay is T1, SMARCA2 (Homo sapiens, UniProt P51531).
T1 construct: endogenous in cells; host or cells: HT1080 (CRISPR HiBiT knock-in clone, generated in house)
Description: SMARCA2 HiBiT degradation assay (cellular). Particulars: table head names A549; for DC50: 6 h incubation, HiBiT-tagged SMARCA2, luminescence read-out, read-out: HiBit A549 SMARCA2 IP (nM) 6 h; for Emax: A549, 6 h incubation, Emax = amount of residual protein remaining in the cell following compound treatment. The format is cell-based. A general note: HiBiT is a short tag that completes a luciferase, so light tracks the accessible tagged protein.

T1 sequence (P51531 whole entry): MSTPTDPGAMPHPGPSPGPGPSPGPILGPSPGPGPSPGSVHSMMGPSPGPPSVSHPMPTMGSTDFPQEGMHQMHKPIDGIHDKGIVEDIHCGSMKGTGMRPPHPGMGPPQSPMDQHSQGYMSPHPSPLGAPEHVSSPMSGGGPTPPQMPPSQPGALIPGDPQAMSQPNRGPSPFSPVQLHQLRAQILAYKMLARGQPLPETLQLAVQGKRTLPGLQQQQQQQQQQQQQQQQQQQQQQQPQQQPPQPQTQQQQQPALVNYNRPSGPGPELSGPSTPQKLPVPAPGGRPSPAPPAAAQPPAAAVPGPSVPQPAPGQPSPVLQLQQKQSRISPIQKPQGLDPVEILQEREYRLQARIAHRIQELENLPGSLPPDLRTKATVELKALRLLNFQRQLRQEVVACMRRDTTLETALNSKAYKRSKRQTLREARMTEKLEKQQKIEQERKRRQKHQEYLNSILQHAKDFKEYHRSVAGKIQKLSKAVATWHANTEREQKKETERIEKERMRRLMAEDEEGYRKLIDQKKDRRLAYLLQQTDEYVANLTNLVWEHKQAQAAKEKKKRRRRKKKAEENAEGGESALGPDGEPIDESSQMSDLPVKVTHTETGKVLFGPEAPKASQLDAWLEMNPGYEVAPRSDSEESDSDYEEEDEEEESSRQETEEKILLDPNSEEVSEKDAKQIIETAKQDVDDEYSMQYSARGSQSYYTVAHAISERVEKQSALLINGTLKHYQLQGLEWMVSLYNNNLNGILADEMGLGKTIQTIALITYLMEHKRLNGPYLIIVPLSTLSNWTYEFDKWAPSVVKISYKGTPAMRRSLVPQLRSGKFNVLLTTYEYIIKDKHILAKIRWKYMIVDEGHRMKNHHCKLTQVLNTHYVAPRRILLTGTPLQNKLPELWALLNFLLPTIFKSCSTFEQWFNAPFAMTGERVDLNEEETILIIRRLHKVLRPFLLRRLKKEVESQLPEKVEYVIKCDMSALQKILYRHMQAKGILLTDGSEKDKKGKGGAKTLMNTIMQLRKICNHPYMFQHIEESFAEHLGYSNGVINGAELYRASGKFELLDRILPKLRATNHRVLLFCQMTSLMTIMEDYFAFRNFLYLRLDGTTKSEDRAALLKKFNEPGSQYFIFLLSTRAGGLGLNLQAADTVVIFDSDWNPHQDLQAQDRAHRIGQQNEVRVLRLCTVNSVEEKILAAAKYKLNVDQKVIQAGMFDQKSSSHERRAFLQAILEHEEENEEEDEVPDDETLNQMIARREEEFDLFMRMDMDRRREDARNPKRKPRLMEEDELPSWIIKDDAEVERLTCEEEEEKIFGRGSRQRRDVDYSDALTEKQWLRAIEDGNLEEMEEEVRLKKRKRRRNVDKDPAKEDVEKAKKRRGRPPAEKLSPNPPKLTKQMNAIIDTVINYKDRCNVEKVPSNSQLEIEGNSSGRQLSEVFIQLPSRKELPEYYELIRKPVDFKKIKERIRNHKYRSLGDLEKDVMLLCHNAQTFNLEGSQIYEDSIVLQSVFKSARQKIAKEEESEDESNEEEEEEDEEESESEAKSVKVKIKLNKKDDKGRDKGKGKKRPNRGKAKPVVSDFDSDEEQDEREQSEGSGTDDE

In the case of `Nc1nnc(-c2ccccc2O)cc1N1CC2CCC(C1)N2c1cccc(OCCN2CCN(C(=O)CCCCCCCCNc3cccc4c3C(=O)N(C3CCC(=O)NC3=O)C4=O)CC2)c1` (centres unmarked) [Example 6, 4-[[9-[4-[2-[3-[3-[3-amino-6-(2-hydroxyphenyl)pyridazin-4-yl]-3,8-diazabicyclo[3.2.1]octan-8-yl]phenoxy]ethyl]piperazin-1-yl]-9-oxo-nonyl]amino]-2-(2,6-dioxo-3-piperidyl)isoindoline-1,3-dione], the DC50 was found to be 334 nM and the Emax was found to be 58%.

As to `CC(C)(Nc1cccc2c1C(=O)N(C1CCC(=O)NC1=O)C2=O)c1cn(CCCCCCCCCN2CCN(c3ccc(N4CCCC(Oc5cc(-c6ccccc6O)nnc5N)C4)cc3)CC2)nn1` (centres unmarked) [Example 88, 4-[[1-[1-[9-[4-[4-[3-[3-amino-6-(2-hydroxyphenyl)pyridazin-4-yl]oxy-1-piperidyl]phenyl]piperazin-1-yl]nonyl]triazol-4-yl]-1-methyl-ethyl]amino]-2-(2,6-dioxo-3-piperidyl)isoindoline-1,3-dione], the DC50 turned out to be 55 nM and the maximal effect (Emax) is 37%.

For `Nc1nnc(-c2ccccc2O)cc1N1CC2CCC(C1)N2c1cccc(OCCN2CCN(CC3CCN(c4ccc5c(c4)C(=O)N(C4CCC(=O)NC4=O)C5=O)CC3)CC2)c1` (racemic) [Example 38, rac-5-[4-[[4-[2-[3-[3-[3-amino-6-(2-hydroxyphenyl)pyridazin-4-yl]-3,8-diazabicyclo[3.2.1]octan-8-yl]phenoxy]ethyl]piperazin-1-yl]methyl]-1-piperidyl]-2-(2,6-dioxo-3-piperidyl)isoindoline-1,3-dione], the DC50 is 20 nM and the Emax is 29%.

In the case of `Nc1nnc(-c2ccccc2O)cc1N1CCC(C(=O)N2CCC(C(=O)N3CCC(c4ccc(C5CCC(=O)NC5=O)cc4)CC3)CC2)(c2ccccc2)CC1` (centres unmarked) [Example 175, 3-(4-(1-(1-(1-(3-amino-6-(2-hydroxyphenyl)pyridazin-4-yl)-4-phenylpiperidine-4-carbonyl)piperidine-4-carbonyl)piperidin-4-yl)phenyl)piperidine-2,6-dione], the DC50 was 42 nM and the maximal effect (Emax) was found to be 47%.

For the compound `Nc1nnc(-c2ccccc2O)cc1N1CC2CCC(C1)N2c1cccc(CN2CCN(C(=O)CN3CCC(c4ccc(NC5CCC(=O)NC5=O)cc4)CC3)CC2)c1` (racemic) [Example 149, rac-3-[4-[1-[2-[4-[[3-[3-[3-Amino-6-(2-hydroxyphenyl)pyridazin-4-yl]-3,8-diazabicyclo[3.2.1]octan-8-yl]phenyl]methyl]piperazin-1-yl]-2-oxo-ethyl]-4-piperidyl]anilino]piperidine-2,6-dione], the DC50 worked out at 18 nM and the Emax worked out at 40%.

As to `Nc1nnc(-c2ccccc2O)cc1N1CCC(C(=O)N2CC3(CCN(CCOC4CCN(c5ccc6c(c5)C(=O)N(C5CCC(=O)NC5=O)C6=O)CC4)C3)C2)(c2ccccc2)CC1` (centres unmarked) [Example 192, 5-[4-[2-[2-[1-[3-amino-6-(2-hydroxyphenyl)pyridazin-4-yl]-4-phenyl-piperidine-4-carbonyl]-2,7-diazaspiro[3.4]octan-7-yl]ethoxy]-1-piperidyl]-2-(2,6-dioxo-3-piperidyl)isoindoline-1,3-dione], the DC50 was 57 nM and the Emax came out at 34%.

In the case of `CC(Oc1cccc2c1C(=O)N(C1CCC(=O)NC1=O)C2=O)c1cn(CCC(=O)N2CCN(CCCN3CCN(c4ccc(N5CCC[C@H](Oc6cc(-c7ccccc7O)nnc6N)C5)cc4)CC3)CC2)nn1` (mixture of isomers) [Example 204, 2-(2,6-dioxo-3-piperidyl)-4-[1-[1-[3-oxo-3-[4-[3-[4-[4-[rac-(3S)-3-[3-amino-6-(2-hydroxyphenyl)pyridazin-4-yl]oxy-1-piperidyl]phenyl]piperazin-1-yl]propyl]piperazin-1-yl]propyl]triazol-4-yl]ethoxy]isoindoline-1,3-dione], the DC50 worked out at 907 nM and the Emax turned out to be 39%.

For the compound `Nc1nnc(-c2ccccc2O)cc1N1CC(Oc2cccc(N3CCN(C(=O)CCCCCCCCCNc4cccc5c4C(=O)N(C4CCC(=O)NC4=O)C5=O)CC3)c2)C1` (centres unmarked) [Example 39, 4-[[10-[4-[3-[1-[3-amino-6-(2-hydroxyphenyl)pyridazin-4-yl]azetidin-3-yl]oxyphenyl]piperazin-1-yl]-10-oxo-decyl]amino]-2-(2,6-dioxo-3-piperidyl)isoindoline-1,3-dione], the DC50 is 718 nM and the maximum response (Emax) was found to be 63%.

As for `CC(Oc1cccc2c1C(=O)N(C1CCC(=O)NC1=O)C2=O)c1cn(C2CN(C(=O)CCCCN3CCN(c4ccc(N5CCC[C@H](Oc6cc(-c7ccccc7O)nnc6N)C5)cc4)CC3)C2)nn1` (mixture of isomers) [Example 199, 2-(2,6-dioxo-3-piperidyl)-4-[1-[1-[1-[5-[4-[4-[rac-(3S)-3-[3-amino-6-(2-hydroxyphenyl)pyridazin-4-yl]oxy-1-piperidyl]phenyl]piperazin-1-yl]pentanoyl]azetidin-3-yl]triazol-4-yl]ethoxy]isoindoline-1,3-dione], the DC50 came to 107 nM and the Emax amounted to 62%.

In the case of `Nc1nnc(-c2ccccc2O)cc1N1CC(Oc2ccc(CN3CCN(C(=O)CCCCCCCCCNc4cccc5c4C(=O)N(C4CCC(=O)NC4=O)C5=O)CC3)cc2)C1` (centres unmarked) [Example 68, 4-[[10-[4-[[4-[1-[3-amino-6-(2-hydroxyphenyl)pyridazin-4-yl]azetidin-3-yl]oxyphenyl]methyl]piperazin-1-yl]-10-oxo-decyl]amino]-2-(2,6-dioxo-3-piperidyl)isoindoline-1,3-dione], the DC50 came to 201 nM and the Emax turned out to be 55%.

`Nc1nnc(-c2ccccc2O)cc1N1CC2CCC(C1)N2c1cccc(OCCN2CCN(C(=O)N3CCN(c4ccc(NC5CCC(=O)NC5=O)cc4)CC3)CC2)c1` (racemic) [Example 81, rac-3-[4-[4-[4-[2-[3-[3-[3-amino-6-(2-hydroxyphenyl)pyridazin-4-yl]-3,8-diazabicyclo[3.2.1]octan-8-yl]phenoxy]ethyl]piperazine-1-carbonyl]piperazin-1-yl]anilino]piperidine-2,6-dione]: the DC50 stood at 16 nM and the maximum response (Emax) was 56%.

On to `Nc1nnc(-c2ccccc2O)cc1N1CC2CCC(C1)N2c1cccc(CN2CCN(C(=O)CN3CCC(c4ccc(OC5CCC(=O)NC5=O)cc4)CC3)CC2)c1` (racemic) [Example 148, rac-3-[4-[1-[2-[4-[[3-[3-[3-Amino-6-(2-hydroxyphenyl)pyridazin-4-yl]-3,8-diazabicyclo[3.2.1]octan-8-yl]phenyl]methyl]piperazin-1-yl]-2-oxo-ethyl]-4-piperidyl]phenoxy]piperidine-2,6-dione], for which the DC50 is 25 nM and the Emax amounted to 33%.

For `Nc1nnc(-c2ccccc2O)cc1N1CCC(NC(=O)CCCN2CCC(c3ccc(OC4CCC(=O)NC4=O)cc3)CC2)(c2ccccc2)CC1` (centres unmarked) [Example 151, N-[1-[3-amino-6-(2-hydroxyphenyl)pyridazin-4-yl]-4-phenyl-4-piperidyl]-4-[4-[4-[(2,6-dioxo-3-piperidyl)oxy]phenyl]-1-piperidyl]butanamide], the DC50 was 855 nM and the Emax is 54%.
